The values that follow come from patent US12246091B2, “Method of encapsulating active ingredients in liposomes” (ABNOBA GMBH, priority 2018, dated 2025).

SMILES strings stand for the structures. Where only a bound is given, the exact number is not on record here.

This data set can be described thus: Solubility of the amphiphilic compound in the first liquid perfluoroperhydrophenanthrene (C14F24). The note with it: for solubility: perfluoroperhydrophenanthrene (C14F24), organic solvent or mixture.

Take `CCCCCCCCCCCCCCCC(=O)OC[C@H](COP(=O)([O-])OCC[N+](C)(C)C)OC(=O)CCCCCCCCCCCCCCC` [DPPC, dipalmitoylphosphatidylcholine]: the solubility was less than 10 µM.

With `CCCCCCCCCCCCCCCCCC(=O)OC[C@H](COP(=O)([O-])OCC[N+](C)(C)C)OC(=O)CCCCCCCCCCCCCCCCC` [DSPC, distearoylphosphatidylcholine], the “Solubility in C14F24” value (in perfluoroperhydrophenanthrene (C14F24, CAS 306-91-2), bound is the detection limit) was < 10^−5 mol/l. In the case of `CC(C)CCC[C@@H](C)[C@H]1CC[C@H]2[C@@H]3CC=C4C[C@@H](O)CC[C@]4(C)[C@H]3CC[C@]12C` [cholesterol], the solubility is less than 10 µM.

The solubility is how much of the substance goes into solution per volume.
